We go through five molecules from article PMC6214915, “Design of a novel cell-permeable chimeric peptide to promote wound healing” (Scientific Reports, 2018).

In data set [1] the test system is Micrococcus luteus. Format: cell-based, Micrococcus luteus (DSM 20030). The note with it: 6 h. As to the method: HaCaT (immortalized human keratinocytes) and HeLa (human cervix carcinoma) cells were cultured in sterile 10 cm petri dishes at 37 °C in a humidified atmosphere of 5% CO2. HaCaT cells were maintained in DMEM containing 4,500 mg/l glucose (DMEMg), 2 mM L-Gln and 10% FBS (fetal bovine serum). HeLa cells were grown in RPMI 1640 supplemented with 4 mM L-Gln and 10% FBS. Bacteria used were Micrococcus luteus (DSM 20030) and Salmonella typhimurium (TA 100). Mueller Hinton (MH) broth agar plates were used for maintenance und MH broth medium was used to carry out antimicrobial activity studies.
Antimicrobial activity of peptide conjugates against gram-positive and gram-negative bacteria was conducted using the p-iodonitrotetrazolium-chloride (INT) violet assay as previously described. INT is a tetrazolium-based reagent which is converted to a pink formazan dye in the presence of metabolically active bacteria.
In brief, M. luteus and S. typhimurium were cultured in MH broth overnight at 37 °C while mild shaking (180 rpm). Overnight-cultured bacteria were added into fresh medium, grown to an optical density of 0.7 at 600 nm and 10 µl bacterial solution were added in triplicate to wells of a 96-well plate (BD Falcon, USA). […] The viability of bacteria relative to untreated bacteria was determined by measuring the absorption at 540 nm on a Tecan infinite M200 plate reader.

In data set [2] the test system is Salmonella typhimurium. The note with it: murium, 6 h.
Experimental: Antimicrobial activity of peptide conjugates against gram-positive and gram-negative bacteria was conducted using the p-iodonitrotetrazolium-chloride (INT) violet assay as previously described[33].
In brief, M. luteus and S. typhimurium were cultured in MH broth overnight at 37 °C while mild shaking (180 rpm). Overnight-cultured bacteria were added into fresh medium, grown to an optical density of 0.7 at 600 nm and 10 µl bacterial solution were added in triplicate to wells of a 96-well plate (BD Falcon, USA). The peptides used at various concentrations and 180 µl of MH medium were added to each corresponding well and incubated for 6 h at 37 °C. 10 µM chloramphenicol served as positive control and H20 was used as negative control. After incubation time, 10 μl of the freshly prepared INT solution (1 mg/ml in DMSO) were added to each well and incubated for further 30 min at 37 °C. The viability of bacteria relative to untreated bacteria was determined by measuring the absorption at 540 nm on a Tecan infinite M200 plate reader.
For data set [3] the following is noted: cited from earlier work. The text has this:
Therefore, it was particularly interesting whether the combination of both, Tylotoin ...

The subject of data set [4] is human keratinocytes HaCaT. Kind of data set: MTT cell viability assay on HaCaT keratinocytes. Format: cell-based. The note with it: 24 h, 37 °C; for Effect on HaCaT cells at higher concentrations: >50 µM; for Cytotoxic effect on keratinocytes viability: 10 to 100 µM, serum-free medium, triplicate, n = 3. As to the method:
Figure 2 Cytotoxic profile of peptides against human keratinocytes HaCaT. Cells were incubated with indicated concentrations of peptides at 37 °C for 24 h. Cell viability of HaCaT cells was determined by MTT assay relative to untreated cells (set to 100%). As positive control, cells were treated with 70% EtOH for 10 min. Experiments were conducted in triplicate with n = 3. Error bars represent standard deviation. (**p < 0.01; ***p < 0.001).
The toxic effect of the investigated peptides on HaCaT cells was evaluated using the [3(4,5-dimethylthiazol-2yl)2,5-diphenyltetrazolium bromide] (MTT) colorimetric method. MTT is a tetrazolium salt which is reduced to a purple colored formazan product by mitochondrial reductases, present only in metabolically active cells. Keratinocytes were seeded onto a 96-well microtiter plate at a density of 8 × 10^4 cells per well in DMEMg supplemented with 2 mM L-Gln and 2% FBS. After reaching 70–80% confluency, the medium was removed and cells were incubated at 37 °C for 24 h with peptides at different concentrations ranging from 10 to 100 µM (in serum-free medium). After 24 h of incubation, 10 µl of MTT (in PBS, 0.45 mg/ml final) were added to each well. After 4 h incubation, the supernatants were removed and the formazan crystals were dissolved by adding 100 μl of dimethyl sulfoxide (DMSO). For the positive control, cells were treated with 70% EtOH for 10 min. The absorption was measured at 570 nm and at a reference wavelength of 630 nm using Tecan infinite M200 plate reader.

Data set [5] deals with HaCaT cells. As to the kind of experiment: Cellular uptake of CF-labeled peptides into HaCaT cells (flow cytometry and confocal microscopy). Format: cell-based, human. The settings on record: 10 µM CF-labeled peptides, 30 min, 37 °C, confocal microscopy. As to the method: Cells were seeded in a µ-slide 8-well (Ibidi) plate (HaCaT 90,000; HeLa 45,000) and grown to 70–80% confluency. Then, the cells were incubated with CF-labeled peptides in serum-free medium for the requested time at either 4 °C or 37 °C as indicated. The nuclei were stained for 10 min with 0.6 µl Hoechst 33342 nuclear dye (bisbenzimide H33342, 1 mg/ml in H2O, sterile filtered) prior to the end of peptide incubation. Finally, the solutions were removed and cells were treated for 30 s with trypan blue (150 µM in 0.1 M acetate buffer, pH 4.15) for quenching external fluorescence. After washing twice with PBS, 300 µl of FBS-containing growth medium were added to each well. Images were taken by using a Nikon Eclipse Ti confocal laser scanning microscope equipped with a 60x oil-immersion objective (N.A. 1.4, Plan APO VC, Nikon). Images were recorded with Nikon EZ-C1 software and adjusted equally with ImageJ software.
For treatment with endocytosis inhibitor, 80 µM of dynasore (in serum-free medium, Sigma-Aldrich) was added to the cells. After 1 h of incubation at 37 °C, CF-labeled peptide solution (in serum-free medium, 10 µM final) was added and incubated for further 30 min. Afterwards, the cells were handled as described above.
Cells were seeded in triplicate in a 24-well plate (HaCaT 370,000; HeLa 170,000) and grown to 70–80% confluency under normal growth conditions. […]

Data set [6] can be described thus: Circular dichroism spectroscopy (secondary structure). In kind it is physicochemical. The settings on record: for Percentage of the α-helix content: phosphate buffer / Percentage of the α-helix content: 50% TFE: CD, 20 µM peptide, calculated from ellipticity at 222 nm; for Percentage of the α-helix content: phosphate buffer: 10 mM phosphate buffer pH 7.0, 20 °C; for Percentage of the α-helix content: 50% TFE: 10 mM phosphate buffer pH 7.0 with 50% TFE, 20 °C; for R-value: ratio between molar ellipticity values at 222 and 208 nm, in the presence of 50% TFE, R = 1 perfect α-helix. As to the method:
Figure 1 Structural characteristics of investigated peptides. CD spectra were acquired at a peptide concentration of 20 µM in 10 mM phosphate buffer, pH 7.0 (A) and in the additional presence of 50% TFE (B). The percentage of the α-helix content was calculated from the ellipticity value at 222 nm using the following formula: (% α-helix = ((([Θ222]−3000)⁄(−36000−3000)) × 100)[47] (C). R-values represent the ratio between the molar ellipticity values at 222 and 208 nm[20] and R = 1 defined as hallmark for a perfectly built α-helix[48]. Helical wheel projections of Tylotoin-sC18* and sC18*-Tylotoin predicted by HeliQuest (D). TEXT PRINTED IN THE PICTURE: (C) Tylotoin-sC18: Percentage of the α-helix content: phosphate buffer: 12.1; Percentage of the α-helix content: 50% TFE: 46.3; R-value: 0.85 | (C) sC18-Tylotoin: Percentage of the α-helix content: phosphate buffer: 13.1; Percentage of the α-helix content: 50% TFE: 43.5; R-value: 0.87 | (C) Tylotoin-sC18*: Percentage of the α-helix content: phosphate buffer: 10.7; Percentage of the α-helix content: 50% TFE: 46.3; R-value: 0.77 | (C) sC18*-Tylotoin: Percentage of the α-helix content: phosphate buffer: 6.9; Percentage of the α-helix content: 50% TFE: 40.5; R-value: 0.74 | (C) Tylotoin: Percentage of the α-helix content: phosphate buffer: 15.6; Percentage of the α-helix content: 50% TFE: 25.0; R-value: 0.51
CD spectra were recorded from 180 nm to 270 nm in 0.5 nm intervals at 20 °C using a JASCO J-715 spectropolarimeter in an N2 atmosphere. The CD spectra were measured using a 1 mm quartz cuvette and the instrument parameters were set as follows: sensitivity, 100 mdeg; scan mode, continuous; scan speed, 50 nm/min; response time, 2 sec and bandwidth, 1.0 nm. Peptides were dissolved in 10 mM potassium phosphate buffer (pH 7.0) containing either 0 or 50% (v/v) trifluoroethanol (TFE) to a final peptide concentration of 20 µM.

Converted amounts (≈) assume the structure as drawn. Peptide text beside a SMILES is read from it.

With `CC(C)C[C@H](NC(=O)CNC(=O)[C@H](CCCCN)NC(=O)[C@H](CS)NC(=O)[C@@H](NC(=O)[C@H](CCCNC(=N)N)NC(=O)[C@H](CCCCN)NC(=O)[C@H](CC(N)=O)NC(=O)[C@H](CC(N)=O)NC(=O)[C@H](CCC(N)=O)NC(=O)[C@H](CCCNC(=N)N)NC(=O)[C@@H](NC(=O)[C@H](CS)NC(=O)[C@@H](N)CCCCN)C(C)C)C(C)C)C(=O)N[C@@H](CCCNC(=N)N)C(=O)N[C@@H](CCCCN)C(=O)N[C@@H](CCCNC(=N)N)C(=O)N[C@@H](CC(C)C)C(=O)N[C@@H](CCCNC(=N)N)C(=O)N[C@@H](CCCCN)C(=O)N[C@@H](Cc1ccccc1)C(=O)N[C@@H](CCCNC(=N)N)C(=O)N[C@@H](CC(N)=O)C(=O)N[C@@H](CCCCN)C(N)=O` [Tylotoin-sC18*] (H-KCVRQNNKRVCKGLRKRLRKFRNK-NH2; N-terminus assumed), the MIC value in data set [1] was 13.47 µM (≈ 40.8 µg/mL); in data set [2], ~ 12.64 µM.

On to “GLRKRLRKFRNKIKEK-NH2 [sC18, cell penetrating peptide recently developed in the authors' group; control peptide]”, for which the Antimicrobial activity entry in data set [3] is on record as “moderate antimicrobial activities”. Also, in data set [4], the “Effect on HaCaT cells at higher concentrations” value was “negatively affect the cells”. Also, the “Intracellular distribution in keratinocytes” value in data set [5] was “some nuclear uptake was visible”.

For the molecule “GLRKRLRKFRNKIKEKKCVRQNNKRVCK-NH2 [sC18-Tylotoin, chimeric peptide, CPP sC18 fused N-terminally to Tylotoin]”, in data set [6], the “Percentage of the α-helix content: phosphate buffer” value (“Percentage … phosphate buffer” below) was 13.1%, the “Percentage of the α-helix content: 50% TFE” value (“Percentage … 50% TFE” for short) is listed as 43.5% and the R-value turned out to be 0.87. Moreover, in data set [4], the “Effect on HaCaT cells at higher concentrations” value is “negatively affect the cells”.

As for “GLRKRLRKFRNKKCVRQNNKRVCK-NH2 [sC18*-Tylotoin, chimeric peptide, CPP sC18* fused N-terminally to Tylotoin]”, in data set [6], the “Percentage … phosphate buffer” value is listed as 6.9%, the “Percentage … 50% TFE” value is 40.5% and the R-value turned out to be 0.74. In data set [4], the “Cytotoxic effect on keratinocytes viability” value is reported as “slight decrease in cell viability”; the “Difference in relative cell viability between sC18* and sC18*-Tylotoin” value is “about 40%”.

As for “KCVRQNNKRVCKGLRKRLRKFRNKIKEK-NH2 [Tylotoin-sC18, chimeric peptide, CPP sC18 fused to the C-terminus of Tylotoin]”, in data set [6], the “Percentage … phosphate buffer” value is 12.1%, the “Percentage … 50% TFE” value is 46.3% and the R-value was 0.85. Further, the “Cytotoxic effect on keratinocytes viability” value in data set [4] is “no cytotoxic effect at all”.
